Results from patent US9062045B2, “Triazolopyridine compounds” (Novartis AG, priority 2012, dated 2015).
Where two headings read alike, the source gives them in different places.

Columns and labels:
GTL16 cells = assay: GTL16 cell viability assay (CellTiter Glo); settings: read-out: GTL-16 Proliferation IC50; GTL16 cells, 24 hours
Experimental: GTL16 Cell Viability Assay:
GTL16 expresses high level of c-Met receptor tyrosine kinase due to the gene amplification.
GTL16 cells were seeded in DMEM medium with 10% FBS and 1% Pene. & Strep. at 5000 cells/well/90 μL in 96 well plate and incubated overnight for attachment at 37° C. in 5% CO2 incubator. 10-fold serials dilutions of compounds were added to the cell as 10 μL/well. The final assay volume was 100 μl/well. The assay plates were incubated at 37° C. in 5% CO2 incubator for 24 hours. […] The chemiluminescent light unit was read in Envision from Perkin Elmer. All the tests were run at triplicates. The IC50 was calculated using Spotfire software.

human platelet PDE3 = human platelet PDE3 (Homo sapiens (Human), UniProt Q14432); assay: hPDE3 assay ([3H]cAMP scintillation proximity assay); type: biochemical
From the text: Here, compounds of formula I were screened for their ability to inhibit human PDE3 in the assay based on Amersham Pharmacia Biotech's Phosphodiesterase (PDE) [^3H]-adenosine 3′,5′ cyclic phosphate ([^3H]cAMP) Scintillation Proximity Assay (SPA). The assay is based on the hydrolysis of [^3H]cAMP, by human platelet PDE3, to [^3H]5′-adenoside monophosphate (5′-AMP). The [^3H]5′-AMP is specifically captured by yttrium silicate SPA beads in the presence of zinc sulphate.
• Optiplate and TopSeal-S (Can berra Packard) • Human platelet PDE3 (partially purified from human platelets)—a titration curve of human platelet PDE3 activity was performed to optimise the concentration of hPDE3 required in the assay. • Yttrium silicate SPA beads and [^3H]cAMP (Amersham) • Tris-Base, magnesium chloride, ethylenediaminetetraacetic acid (di-sodium salt), bovine serum albumin BSA and cAMP (Sigma) Solutions and Buffers: • Assay buffer: 7.56 g Tris-Base was dissolved in approximately 800 mL distilled water and the pH adjusted to 7.5 with 1 M hydrochloric acid. 10.3 mL 1 M magnesium chloride and 4.25 mL 0.5 M EDTA were added. The solution was made to 1 L with distilled water and stored at 4° C. On day of use 18 mL of the above solution was removed and 2 mL 5 mg/ml BSA were added thereto. • Enzyme buffer: 10 mM Tris-HCl at pH 7.5, 1 mM EDTA • Yttrium silicate SPA beads: 1 vial was reconstituted in 28 mL distilled water and stored at 4° C. Assay
The assay was performed in a final volume of 100 μL per well of an Optiplate (Canberra Packard). A 10 μL aliquot of the test compound dissolved in DMSO/distilled water was placed in a well of an Optiplate plate, followed by the addition of 80 μL ‘Assay mix’ (5.5 μL [^3H]cAMP and 88 μL “cold” cAMP were diluted to 8.8 mL using assay buffer). The reaction was started by adding 10 μL hPDE3 (50 μL stock hPDE3 solution was diluted 50 fold to 2.5 mL using enzyme buffer). The plate was incubated at room temperature for 30 min, the reaction was then terminated by the addition of 50 μL Yttrium silicate SPA beads (pre-warmed to room temperature) to all wells. […] The plate was sealed using TopSeal-S according to the manufacturer's instructions and counted using a Packard TopCount, each well being counted for 1 min. IC50 values were determined using non-linear regression.

Chain of human platelet PDE3 (Q14432 whole entry): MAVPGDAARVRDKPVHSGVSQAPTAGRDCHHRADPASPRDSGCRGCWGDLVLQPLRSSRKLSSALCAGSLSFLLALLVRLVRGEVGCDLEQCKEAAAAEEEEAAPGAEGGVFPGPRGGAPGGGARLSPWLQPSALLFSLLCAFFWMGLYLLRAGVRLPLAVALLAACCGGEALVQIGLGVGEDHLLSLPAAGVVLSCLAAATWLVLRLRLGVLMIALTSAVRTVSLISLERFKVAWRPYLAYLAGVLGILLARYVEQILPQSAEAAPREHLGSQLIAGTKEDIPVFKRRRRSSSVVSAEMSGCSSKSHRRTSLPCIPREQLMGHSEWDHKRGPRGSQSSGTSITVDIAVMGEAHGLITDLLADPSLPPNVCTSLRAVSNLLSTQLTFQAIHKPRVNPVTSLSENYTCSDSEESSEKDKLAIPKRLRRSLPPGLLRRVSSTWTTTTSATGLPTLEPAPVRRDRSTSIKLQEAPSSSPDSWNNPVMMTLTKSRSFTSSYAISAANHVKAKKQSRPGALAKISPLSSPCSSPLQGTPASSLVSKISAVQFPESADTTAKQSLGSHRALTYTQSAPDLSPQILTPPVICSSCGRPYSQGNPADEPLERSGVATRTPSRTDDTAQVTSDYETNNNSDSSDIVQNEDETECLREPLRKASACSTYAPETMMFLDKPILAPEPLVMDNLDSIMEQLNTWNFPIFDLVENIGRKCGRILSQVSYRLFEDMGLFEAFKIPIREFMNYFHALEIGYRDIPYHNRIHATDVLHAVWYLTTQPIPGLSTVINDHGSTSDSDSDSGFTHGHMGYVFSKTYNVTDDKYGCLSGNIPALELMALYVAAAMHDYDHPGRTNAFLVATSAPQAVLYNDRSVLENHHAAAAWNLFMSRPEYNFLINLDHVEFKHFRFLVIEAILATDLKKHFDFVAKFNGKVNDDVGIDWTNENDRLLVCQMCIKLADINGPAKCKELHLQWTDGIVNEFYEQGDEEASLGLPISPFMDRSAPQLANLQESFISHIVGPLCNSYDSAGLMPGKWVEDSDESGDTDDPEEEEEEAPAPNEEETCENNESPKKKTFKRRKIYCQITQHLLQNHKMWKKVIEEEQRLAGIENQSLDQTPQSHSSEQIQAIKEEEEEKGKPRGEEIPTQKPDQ

Row | SMILES | IC50 (human platelet PDE3; human platelet PDE3) [µM] | IC50 (GTL16 cells) [µM] | IC50 (human platelet PDE3) [µM]
1 | OCCn1cc(-c2cnc3nnn(Cc4ccc5ncccc5c4)c3n2)cn1 [Comparator No. 3 (PF-04217903), 2-[4-(3-Quinolin-6-ylmethyl-3H-[1,2,3]triazolo[4,5-b]pyrazin-5-yl)-pyrazol-1-yl]-ethanol, reference compound] | – | < 0.01 | –
2 | Cn1cc(-c2ccc3nnc(Sc4ccc5ncc(N6CCCC(N)C6)cc5c4)n3c2)cn1 (stereo not shown) [Example 10, 1-(6-(6-(1-Methyl-1H-pyrazol-4-yl)-[1,2,4]triazolo[4,3-a]pyridin-3-ylthio)quinolin-3-yl)piperidin-3-amine] | – | 0.021 | –
3 | CN(C)[C@H]1CCN(c2cnc3ccc(Sc4nnc5c(F)cc(-c6cnn(C)c6)cn45)cc3c2)C1 [Example 13, (S)-1-(6-(8-Fluoro-6-(1-methyl-1H-pyrazol-4-yl)-[1,2,4]triazolo[4,3-a]pyridin-3-ylthio)quinolin-3-yl)-N,N-dimethylpyrrolidin-3-amine] | 24 | 0.0004 | –
4 | Cn1cc(-c2ccc3nnc(Sc4ccc5ncc(N6CCC(N)CC6)cc5c4)n3c2)cn1 [Example 21, 1-(6-(6-(1-Methyl-1H-pyrazol-4-yl)-[1,2,4]triazolo[4,3-a]pyridin-3-ylthio)quinolin-3-yl)piperidin-4-amine] | – | 0.036 | –
5 | COC1CCN(c2cnc3ccc(Sc4nnc5ccc(-c6cnn(C)c6)cn45)cc3c2)CC1 [Example 43, 3-(4-Methoxypiperidin-1-yl)-6-(6-(1-methyl-1H-pyrazol-4-yl)-[1,2,4]triazolo[4,3-a]pyridin-3-ylthio)quinoline] | – | 0.0003 | –
6 | Cn1cc(-c2ccc3nnc(Sc4ccc5ncc(N6CCC7(CCOCC7)C6)cc5c4)n3c2)cn1 [Example 47, 2-(6-((6-(1-Methyl-1H-pyrazol-4-yl)-[1,2,4]triazolo[4,3-a]pyridin-3-yl)thio)quinolin-3-yl)-8-oxa-2-azaspiro[4.5]decane] | 12 | 0.003 | –
7 | Cn1cc(-c2cc(F)c3nnc(Sc4ccc5ncc(N6CCC(O)CC6)cc5c4)n3c2)cn1 [Example 50, 1-(6-((8-Fluoro-6-(1-methyl-1H-pyrazol-4-yl)-[1,2,4]triazolo[4,3-a]pyridin-3-yl)thio)quinolin-3-yl)piperidin-4-ol] | 30 | 0.001 | –
8 | Cn1cc(-c2cc(F)c3nnc(Sc4ccc5ncc(NCCO)cc5c4)n3c2)cn1 [Example 54, 2-(6-(8-Fluoro-6-(1-methyl-1H-pyrazol-4-yl)-[1,2,4]triazolo[4,3-a]pyridin-3-ylthio)quinolin-3-ylamino)ethanol] | – | 0.014 | –
9 | Cn1cc(-c2cc(F)c3nnc(Sc4ccc5ncc(N6CCOCC6)cc5c4)n3c2)cn1 [Example 70, 4-(6-(8-Fluoro-6-(1-methyl-1H-pyrazol-4-yl)-[1,2,4]triazolo[4,3-a]pyridin-3-ylthio)quinolin-3-yl)morpholine] | – | 0.001 | –
10 | CN1CCN(c2cnc3ccc(Sc4nnc5ccc(-c6cnn(C)c6)cn45)cc3c2)CC1 [Example 74, 3-(4-Methyl-piperazin-1-yl)-6-[6-(1-methyl-1H-pyrazol-4-yl)-[1,2,4]triazolo[4,3-a]pyridin-3-ylsulfanyl]-quinoline] | – | 0.002 | –
11 | C/C(=N\OCCO)c1ccc2nnc(Sc3ccc4ncc(N5CCC(O)CC5)cc4c3)n2c1 [Example 76, (E)-1-(3-((3-(4-Hydroxypiperidin-1-yl)quinolin-6-yl)thio)-[1,2,4]triazolo[4,3-a]pyridin-6-yl)-ethanone O-(2-hydroxyethyl)oxime] | 14 | 0.054 | –
12 | C/C(=N\O)c1ccc2nnc(Sc3ccc4ncc(N5CCOCC5)cc4c3)n2c1 [Example 77, (E)-1-(3-((3-Morpholin-4-yl-quinolin-6-yl)thio)-[1,2,4]triazolo[4,3-a]pyridin-6-yl)ethanone oxime] | 12 | 0.008 | –
13 | C/C(=N\OCCO)c1ccc2nnc(Sc3ccc4ncc(N5CCOCC5)cc4c3)n2c1 [Example 78, (E)-1-(3-((3-Morpholin-4-yl-quinolin-6-yl)thio)-[1,2,4]triazolo[4,3-a]pyridin-6-yl)ethanone O-(2-hydroxyethyl)oxime] | 28 | – | –
14 | C/C(=N\OCCO)c1ccc2nnc(Sc3ccc4ncc(CN5CCOCC5)cc4c3)n2c1 [Example 80, (E)-1-(3-((3-(Morpholin-4-yl-methyl)quinolin-6-yl)thio)-[1,2,4]triazolo[4,3-a]pyridin-6-yl)ethanone O-(2-hydroxyethyl)oxime] | 30 | – | –
15 | C/C(=N\O)c1ccc2nnc(Sc3ccc4ncc(N5CC[C@H](N(C)C)C5)cc4c3)n2c1 [Example 82, (S,E)-1-(3-(3-(3-(Dimethylamino)pyrrolidin-1-yl)quinolin-6-ylthio)-[1,2,4]triazolo[4,3-a]pyridin-6-yl)ethanone oxime] | – | – | 11
16 | C/C(=N\OCCO)c1ccc2nnc(Sc3ccc4ncc(NC5CCOCC5)cc4c3)n2c1 [Example 83, (E)-1-(3-(3-(Tetrahydro-2H-pyran-4-ylamino)quinolin-6-ylthio)-[1,2,4]triazolo[4,3-a]pyridin-6-yl)ethanone O-2-hydroxyethyl oxime] | 20 | 0.001 | –
17 | C/C(=N\O)c1ccc2nnc(Sc3ccc4ncc(NC5CCOCC5)cc4c3)n2c1 [Example 84, (E)-1-(3-(3-(Tetrahydro-2H-pyran-4-ylamino)quinolin-6-ylthio)-[1,2,4]triazolo[4,3-a]pyridin-6-yl)ethanone oxime] | 6 | 0.003 | –

The next lines start with results.

Row | IC50 (human platelet PDE3; human platelet PDE3) [µM] | SMILES | IC50 (GTL16 cells) [µM] | IC50 (human platelet PDE3) [µM]
18 | 30 | CN1CCN(Cc2cnc3ccc(Sc4nnc5ccc(-c6cnn(C)c6)cn45)cc3c2)CC1 [Example 6, 6-(6-(1-Methyl-1H-pyrazol-4-yl)-[1,2,4]triazolo[4,3-a]pyridin-3-ylthio)-3-((4-methylpiperazin-1-yl)methyl)quinoline] | 0.027 | –
19 | 30 | CN1CCC(Nc2cnc3ccc(Sc4nnc5c(F)cc(-c6cnn(C)c6)cn45)cc3c2)CC1 [Example 8, {6-[8-Fluoro-6-(1-methyl-1H-pyrazol-4-yl)-[1,2,4]triazolo[4,3-a]pyridin-3-ylsulfanyl]-quinolin-3-yl}-(1-methyl-piperidin-4-yl)-amine] | – | –
20 | 30 | CN1CCC(Nc2cnc3ccc(Sc4nnc5ccc(-c6cnn(C)c6)cn45)cc3c2)CC1 [Example 15, (1-Methyl-piperidin-4-yl)-{6-[6-(1-methyl-1H-pyrazol-4-yl)-[1,2,4]triazolo[4,3-a]pyridin-3-ylsulfanyl]-quinolin-3-yl}-amine] | 0.002 | –
21 | 30 | Cn1cc(-c2ccc3nnc(Sc4ccc5ncc(NC6CCNCC6)cc5c4)n3c2)cn1 [Example 23, 6-(6-(1-Methyl-1H-pyrazol-4-yl)-[1,2,4]triazolo[4,3-a]pyridin-3-ylthio)-N-(piperidin-4-yl)quinolin-3-amine] | 0.289 | –
22 | 17 | Cn1cc(-c2ccc3nnc(Sc4ccc5ncc(N6CCNCC6)cc5c4)n3c2)cn1 [Example 27, 6-(6-(1-Methyl-1H-pyrazol-4-yl)-[1,2,4]triazolo[4,3-a]pyridin-3-ylthio)-3-(piperazin-1-yl)quinoline] | 0.004 | –
23 | 7 | Cn1cc(-c2ccc3nnc(Sc4ccc5ncc(NC6CCOC6)cc5c4)n3c2)cn1 (stereo not shown) [Example 51] | 0.009 | –
24 | 14 | Cn1cc(-c2ccc3nnc(Sc4ccc5ncc(NCCO)cc5c4)n3c2)cn1 [Example 53, 2-(6-(6-(1-methyl-1H-pyrazol-4-yl)-[1,2,4]triazolo[4,3-a]pyridin-3-ylthio)quinolin-3-ylamino)ethanol] | 0.017 | –
25 | 12 | Cn1cc(-c2ccc3nnc(Sc4ccc5ncc(N6CCC(F)(F)CC6)cc5c4)n3c2)cn1 [Example 61, 3-(4,4-Difluoro-piperidin-1-yl)-6-[6-(1-methyl-1H-pyrazol-4-yl)-[1,2,4]triazolo[4,3-a]pyridin-3-ylsulfanyl]-quinoline] | 0.002 | –
26 | 18 | Cn1cc(-c2ccc3nnc(Sc4ccc5ncc(NC6CC(C)(C)NC(C)(C)C6)cc5c4)n3c2)cn1 [Example 62, 6-(6-(1-Methyl-1H-pyrazol-4-yl)-[1,2,4]triazolo[4,3-a]pyridin-3-ylthio)-N-(2,2,6,6-tetramethylpiperidin-4-yl)quinolin-3-amine] | 0.073 | –
27 | 10 | Cn1cc(-c2ccc3nnc(Sc4ccc5ncc(NC6CCOCC6)cc5c4)n3c2)cn1 [Example 68, {6-[6-(1-Methyl-1H-pyrazol-4-yl)-[1,2,4]triazolo[4,3-a]pyridin-3-ylsulfanyl]-quinolin-3-yl}-(tetrahydro-pyran-4-yl)-amine] | 0.003 | –
